Patent publication US20240366612A1, “COMPOUNDS AND METHODS FOR MODULATING NUCLEIC ACID SPLICING” (REMIX THERAPEUTICS INC., priority 2021, published 2024)
pIC50: −log10 of the molar value. Structures can show the parent of a compound that is named as a salt.

What was measured:
HTT mRNA = experiment: Splicing RT-qPCR assay, HTT canonical (CJ) and alternative (AJ) junction mRNA; format: cell-based; conditions: Homo sapiens, A673 or K562 cells, 24 hours treatment; for pIC50: decrease in CJ mRNA; for AC50: increase in AJ mRNA
Description: Compounds described herein were used to modulate RNA transcript abundance in cells. The expression of a target mRNA was measured by detecting the formation of an exon-exon junction in the canonical transcript (CJ). A compound mediated exon-inclusion event was detected by observing an increase in formation of a new junction with an alternative exon (AJ). Real-time qPCR assays were used to detect these splicing switches and interrogate the potency of various compounds towards different target genes. A high-throughput real time quantitative PCR (RT-qPCR) assay was developed to measure these two isoforms of the mRNA (CJ and AJ) for exemplary genes, such as HTT, SMN2, and MYB, together with a control housekeeping gene, GAPDH or GUSB or PPIA, used for normalization. Briefly, the A673 or K562 cell line was treated with various compounds described herein (e.g., compounds of Formula (I)). After treatment, the levels of the HTT, MYB, or SMN2 mRNA targets were determined from each sample of cell lysate by cDNA synthesis followed by qPCR.
• Cells-to-CT 1-step kit: ThermoFisher A25602, Cells-to-CT lysis reagent: ThermoFisher 4391851C, TaqMan™ Fast Virus 1-Step Master Mix: ThermoFisher 4444436 • GAPDH: VIC-PL, ThermoFisher 4326317E (Assay: Hs99999905_ml)—used for K562/suspension cell lines • GUSB: VIC-PL, ThermoFisher 4326320E (Assay: Hs99999908_ml)—used for K562/suspension cell lines • PPIA: VIC-PL, ThermoFisher 4326316E (Assay: Hs99999904_ml)—used for A673/adherent cell lines
The A673 cell line was cultured in DMEM with 10% FBS. Cells were diluted with full growth media and plated in a 96-well plate (15,000 cells in 100 ul media per well). The plate was incubated at 37° C. with 5% CO2 for 24 hours to allow cells to adhere. An 11-point 3-fold serial dilution of the compounds was made in DMSO then diluted in media in an intermediate plate. Compounds were transferred from the intermediate plate to the cell plate with the top dose at a final concentration of 10 uM in the well. Final DMSO concentration was kept at or below 0.25%. The cell plate was returned to the incubator at 37° C. with 5% CO2 for an additional 24 hours.
The K562 cell line was cultured in IMDM with 10% FBS. For K562, cells were diluted with full growth media and plated in either a 96-well plate (50,000 cells in 50 uL media per well) or a 384-well plate (8,000-40,000 cells in 45 uL media per well). An 11-point 3-fold serial dilution of the compounds were made in DMSO then diluted in media in an intermediate plate. Compound was transferred from the intermediate plate to the cell plate with the top dose at a final concentration of 10 uM in the well. Final DMSO concentration was kept at or below 0.25%. Final volume was 100 uL for 96-well plate and 50 uL for 384-well plate. The cell plate was then placed in an incubator at 37° C. with 5% CO2 for 24 hours.
The cells were then gently washed with 50 uL-100 uL cold PBS before proceeding to addition of lysis buffer. 30 uL-50 μL of room temperature lysis buffer with DNAse I (and optionally RNAsin) was added to each well. Cells were shaken/mixed thoroughly at room temperature for 5-10 minutes for lysis to take place and then 3 uL-5 μL of room temperature stop solution was added and wells were shaken/mixed again. After 2-5 minutes, the cell lysate plate was transferred to ice for RT-qPCR reaction setup. The lysates could also be frozen at −80° C. for later use.
In some cases, a direct lysis buffer was used. An appropriate volume of 3×lysis buffer (10 mM Tris, 150 mM NaCl, 1.5%-2.5% Igepal and 0.1-1 U/uL RNAsin, pH 7.4) was directly added to either K562 or A673 cells in media and mixed by pipetting 3 times. The plates were then incubated at room temperature with shaking/rocking for 20-50 minutes to allow for lysis to take place. After this time, the cell lysate plate was transferred to ice to set up for the RT-qPCR reactions. The lysates could also be frozen at −80° C. for later use. […]

[1] = tested on: HiBiT-tagged Target C protein in K562 cells; experiment: HiBiT protein abundance assay, Target C; format: cell-based, human; conditions: HiBiT-modified K562 cells, 24 hours, luminescence
Description: Compounds described herein were used to screen for effects on quantitative protein abundance using a HiBit assay system (Promega). Quantitative protein abundance was determined by measuring the protein levels of HiBit-tagged protein targets expressed in cell culture via luminescence using the Nano-Glo HiBiT Lytic Detection System, which uses a split complementation assay format to reconstitute NanoBiT enzyme to generate a luminescent signal. A protein abundance assay was developed such that endogenous protein targets could be modified with the HiBiT peptide tag and their abundance could be assessed after compound treatment. Briefly, K562 cell lines containing a HiBiT-modification were treated with various compounds described herein (e.g., compounds of Formulas (I), (II), or (III)). After treatment for 24 hours, the protein abundance of a specific target was determined by measuring luminescence.
• Promega Nano-Glo HiBiT Lytic Detection System (cat #N3030) • Corning 384-well TC-treated microplates (cat #3570) • Synthego Engineered Cells Knock-In Clones
Cells were maintained in IMDM with 10% FBS. Before the assay, cells were diluted with […] growth media (IMDM+1% FBS media) and were seeded in a 384-well plate at a density of 10000 cells/well (for each cell line listed in Table 5). Each compound was prepared as a 10-point 3-fold serial dilution in DMSO with the top dose at a final concentration of 10 μM in the well. Unmodified K562 cells were added at the previously specified density with DMSO to serve as an assay baseline and positive control (PC) and DMSO only with the respective modified cell lines was added to the negative control (NC) columns. Final DMSO concentration was kept at or below 0.25%. Treated cell plates were placed in an incubator at 37° C. with 5% CO2 for 24 hours. After 24 hours, 25 μL of Complete HiBit Lytic reagent was added to each well at room temperature (e.g. one plate requiring 10 mL Lytic Buffer, 100 μL LgBiT Protein, 200 μL Lytic Substrate), shaken for 5 minutes at 600 RPM, then left to sit for 10 minutes for signal to stabilize before reading on a Spark Cyto plate reader (Tecan) with a 500 ms measurement time.
To determine compound effects on protein abundance of each target in Table 5, the percent response for each respective cell line was calculated at each compound concentration as follows:
For the normalized response at each concentration, a four-parameter logistical regression was fit to the data and the response was interpolated at the 50% value to determine a concentration for protein abundance at 50% (IC50) the untreated control.

Compound	pIC50 (HTT mRNA)	AC50 (HTT mRNA) [nM]	pIC50 [1]
Cc1cn2cc(-c3nn4c(=O)cc(N5CCNCC5)nc4s3)cc(F)c2n1 [Compound 214, 2-(8-fluoro-2-methylimidazo[1,2-a]pyridin-6-yl)-7-(piperazin-1-yl)-5H-[1,3,4]thiadiazolo[3,2-a]pyrimidin-5-one]	5.00 to 6.00	> 10000	< 5.00
Cc1cn2cc(-c3nn4c(=O)cc(N(C)C5CC(C)(C)NC(C)(C)C5)nc4s3)cc(F)c2n1 [Compound 215, 2-(8-fluoro-2-methylimidazo[1,2-a]pyridin-6-yl)-7-(methyl(2,2,6,6-tetramethylpiperidin-4-yl)amino)-5H-[1,3,4]thiadiazolo[3,2-a]pyrimidin-5-one]	5.00 to 6.00	1000 to 10000	< 5.00
Cc1cn2cc(-c3nn4c(=O)cc(N5CCNC6(CC6)C5)nc4s3)cc(F)c2n1 [Compound 216, 2-(8-fluoro-2-methylimidazo[1,2-a]pyridin-6-yl)-7-(4,7-diazaspiro[2.5]octan-7-yl)-5H-[1,3,4]thiadiazolo[3,2-a]pyrimidin-5-one]	5.00 to 6.00	1000 to 10000	5.00 to 6.00
Cc1cn2cc(-c3nn4c(=O)cc(N5CCN(C)CC5)nc4s3)cc(F)c2n1 [Compound 217, 2-(8-fluoro-2-methylimidazo[1,2-a]pyridin-6-yl)-7-(4-methylpiperazin-1-yl)-5H-[1,3,4]thiadiazolo[3,2-a]pyrimidin-5-one]	5.00 to 6.00	1000 to 10000	5.00 to 6.00
Cc1cn2cc(-c3nn4c(=O)cc(N5CCN(C)C6(CC6)C5)nc4s3)cc(F)c2n1 [Compound 218, 2-(8-fluoro-2-methylimidazo[1,2-a]pyridin-6-yl)-7-(4-methyl-4,7-diazaspiro[2.5]octan-7-yl)-5H-[1,3,4]thiadiazolo[3,2-a]pyrimidin-5-one]	5.00 to 6.00	1000 to 10000	5.00 to 6.00
Cn1cc2cc(-n3cnc4nc(N5CCNCC5)sc4c3=O)ccc2n1 [Compound 225, 6-(2-methyl-2H-indazol-5-yl)-2-(piperazin-1-yl)thiazolo[4,5-d]pyrimidin-7(6H)-one]	< 5.00	> 10000	< 5.00
Cc1cn2cc(-n3cnc4nc(N5CCNCC5)sc4c3=O)cc(F)c2n1 [Compound 226, 6-(8-fluoro-2-methylimidazo[1,2-a]pyridin-6-yl)-2-(piperazin-1-yl)thiazolo[4,5-d]pyrimidin-7(6H)-one]	6.00 to 7.00	100 to 1000	6.00 to 7.00
Cc1cn2cc(-n3cnc4nc(N(C)C5CC(C)(C)NC(C)(C)C5)sc4c3=O)cc(F)c2n1 [Compound 227, 6-(8-fluoro-2-methylimidazo[1,2-a]pyridin-6-yl)-2-(methyl(2,2,6,6-tetramethylpiperidin-4-yl)amino)thiazolo[4,5-d]pyrimidin-7(6H)-one, formate]	< 5.00	> 10000	< 5.00
Cc1cn2cc(-n3cnc4nc(N5CCN(C)CC5)sc4c3=O)cc(F)c2n1 [Compound 228, 6-(8-fluoro-2-methylimidazo[1,2-a]pyridin-6-yl)-2-(4-methylpiperazin-1-yl)thiazolo[4,5-d]pyrimidin-7(6H)-one]	5.00 to 6.00	1000 to 10000	5.00 to 6.00
Cc1cn2cc(-n3cnc4nc(N5CCNCC5)sc4c3=O)cc(C(F)(F)F)c2n1 [Compound 229, 6-(2-methyl-8-(trifluoromethyl)imidazo[1,2-a]pyridin-6-yl)-2-(piperazin-1-yl)thiazolo[4,5-d]pyrimidin-7(6H)-one]	< 5.00	> 10000	< 5.00
Cc1cn2cc(-n3cnc4nc(N5CCN(C)CC5)sc4c3=O)cc(C(F)(F)F)c2n1 [Compound 230, 6-(2-methyl-8-(trifluoromethyl)imidazo[1,2-a]pyridin-6-yl)-2-(4-methylpiperazin-1-yl)thiazolo[4,5-d]pyrimidin-7(6H)-one]	< 5.00	> 10000	< 5.00
Cc1cn2nc(-c3nc4ncn(C5CCNCC5)c(=O)c4s3)cc(C)c2n1 [Compound 231, 2-(2,8-dimethylimidazo[1,2-b]pyridazin-6-yl)-6-(piperidin-4-yl)thiazolo[4,5-d]pyrimidin-7(6H)-one]	6.00 to 7.00	100 to 1000	6.00 to 7.00
Cc1cn2cc(-c3nc4ncn(C5CCNCC5)c(=O)c4s3)cc(F)c2n1 [Compound 232, 2-(8-fluoro-2-methylimidazo[1,2-a]pyridin-6-yl)-6-(piperidin-4-yl)thiazolo[4,5-d]pyrimidin-7(6H)-one]	> 7.00	< 100	6.00 to 7.00
Cc1cc(-c2nc3ncn(C4CCNCC4)c(=O)c3s2)cc2cn(C)nc12 [Compound 233, 2-(2,7-dimethyl-2H-indazol-5-yl)-6-(piperidin-4-yl)thiazolo[4,5-d]pyrimidin-7(6H)-one]	> 7.00	< 100	> 7.00
Cc1cc(-c2nc3ncn(C4CCN(C)CC4)c(=O)c3s2)cc2cn(C)nc12 [Compound 234, 2-(2,7-dimethyl-2H-indazol-5-yl)-6-(1-methylpiperidin-4-yl)thiazolo[4,5-d]pyrimidin-7(6H)-one]	6.00 to 7.00	100 to 1000	6.00 to 7.00
Cc1cn2cc(-c3cc4ncn(C5CCNCC5)c(=O)c4s3)cc(F)c2n1 [Compound 235, 6-(8-fluoro-2-methylimidazo[1,2-a]pyridin-6-yl)-3-(piperidin-4-yl)thieno[3,2-d]pyrimidin-4(3H)-one]	> 7.00	< 100	6.00 to 7.00
